Experimental data published in patent US6932968B1, “Erythropoietin (EPO) peptides and antibodies directed against these” (Dade Behring Marburg GmbH, priority 1989, dated 2005).

Assay: Immunization of rabbits with peptide-KLH conjugates, antibody detection by solid-phase ELISA / Western Blot
Format: in vivo
Details: high-titer epitope-specific anti-EPO antibodies
Excerpt: In order to produce antibodies specific for EPO peptides, the peptide-KLH conjugates were emulsified with adjuvants and injected into rabbits in accordance with a 5-week immunization regimen. After this time the animals had produced specific antibodies and were bled.
A solid-phase ELISA was used to assay the sera for peptide or EPO specificity. The content of peptide-specific and EPO-specific antibodies in the antisera or in the antibody fractions which had been purified by affinity chromatography was determined in plastic microtiter plates, which were coated with purified EPO or with EPO peptides, using an enzyme-coupled anti-rabbit-Ig antiserum. In parallel with this, the antibodies were examined in a Western Blot to detect the specific EPO bands of 34–38 kDa.
Rabbits were immunized with […] of antigen per animal on each occasion for a period of 5 weeks. At the first immunization, the animals each received 0.4 mg of antigen in complete Freund's adjuvant (CFA) subcutaneously at 8 immunization sites in the vicinity of the lymph nodes. This was followed 2 weeks later by subcutaneous immunization with 0.8 mg of antigen/animal in CFA. After a further 2 weeks, the animals received intravenous administration of 0.1 mg of antigen in Aerosil on each of 5 consecutive days. 3 days later they were bled, and the individual antisera were obtained.
20 μg/ml EPO or EPO-specific peptides were coupled in carbonate buffer in plastic microtiter plates at 4° C. overnight. Before carrying out the assays, the plates were washed twice with PBS, saturated with PBS/0.5% BSA for 30 minutes and then washed three times with PBS.
The plates saturated with BSA were incubated with dilutions of the anti-EPO rabbit antisera or of the purified antibody fractions for 2 hours. After this time they were washed with PBS and incubated with anti-rabbit Ig anti-serum, which was coupled to alkaline phosphatase, for 2 hours. […] The reaction was stopped with 1 M NaOH after one hour, and the optical density at […] was measured. […]

Row | Sequence | Immunogenicity of the EPO peptide
1 | CDSRVLERYLLEAKEAE [P4/1, EPO peptide, amino-acid positions 7 to 23] | highly immunogenic
2 | KRMEVGQQAVEV [P3/1, EPO peptide, amino-acid positions 52 to 63] | highly immunogenic
3 | SSQPWEPLQLHV [P1/1, EPO peptide, amino-acid positions 84 to 95] | highly immunogenic
